Read-outs that look alike come from different tables or passages of the source.
Key:
HT29-MTX-E12 cells = tested on: HT29-MTX-E12 cells; set-up: method as in PMID 23869232; conditions: added during the first six days of semi-wet interface with mechanical stimulation; 28 days of incubation; without addition 3–5 μm; cited from earlier work
[1] = tested on: Caco-2/HT29-MTX coculture model
Experimental: (§1) When preparing the partially laminated model, a Caco-2 monolayer with a TEER value ≥ 2000 Ω·cm^2 was formed first, and HT29-MTX cells were then laminated onto the Caco-2 monolayer at ratios of 1:9, 3:7, and 5:5, followed by incubation for the predetermined time. As for the coculture model, Caco-2 and HT29-MTX cells were seeded simultaneously in the different ratios and incubated for the predetermined time to form a hybrid monolayer.
(§2) Briefly, the culture medium on both sides of the Transwell® insert was replaced with HBSS and washed twice with prewarmed HBSS. […] The Papp coefficients of the model drugs were calculated using the following equation [19, 21]:(1) Papp=dQ/dt×1/A.C0 where dQ/dt is the velocity of solutes transported across the culture cell sheet in time, C0 is the concentration of the solute in the apical compartment at time zero, and A is the cross-sectional area of the cell sheet in contact with the apical solution.

[2] = tested on: Caco-2/HT29-MTX partially laminated model
Experimental: In the short-term culture model, Caco-2 monolayers were prepared according to the protocol of the Corning® BioCoat^TM Intestinal Epithelial Cell Environment Kit (Corning Inc., Corning, NY, USA) with slight modifications with reference to the procedure reported by Yamashita et al. [20]. Briefly, Caco-2 cells were seeded at a density of 1 × 10^5 cells/insert onto 24-well Transwell® inserts (0.4 μm pore size, Corning Inc.) using a basal seeding medium. After 24 h of incubation (37 °C, 5% CO2), the basal seeding medium was replaced with the enterocyte differential medium. After an additional 72 h of incubation, a cell monolayer was formed, and the integrity was evaluated via TEER using an epithelial volt-ohmmeter (EVOM2, World Precision Instruments Inc., Sarasota, FL, USA). In the long-term culture model, Caco-2 cells were seeded at a density of 1 × 10^4 cells/insert onto 24-well Transwell® inserts using DMEM containing 10% FBS, 1% nonessential amino acids, and 1% penicillin-streptomycin for 21 days.
as §1, §2
The supernatant was collected as a sample for LC-MS/MS. […]

Compound	mucus layer thickness (HT29-MTX-E12 cells)	Papp compared to that in the Caco-2 monolayer model [1]	Papp compared to that of the HT29-MTX monolayer ([1]; independent of the Caco-2:HT29-MTX ratio)	Papp compared to that in the Caco-2 monolayer ([2]; 5:5 ratio of Caco-2/HT29-MTX) [times]	Papp compared to that in the Caco-2 monolayer ([2]; 7:3 ratio of Caco-2/HT29-MTX) [times]	Papp compared to that in the Caco-2 monolayer ([2]; 9:1 ratio of Caco-2/HT29-MTX)
C[C@H](NC(=O)Cc1cc(F)cc(F)c1)C(=O)NC(C(=O)OC(C)(C)C)c1ccccc1 (stereo partly drawn) [N-[(3,5-difluorophenyl)acetyl]-L-alanyl-2-phenyl]glycine-1,1-dimethylethyl ester]	25–30 μm	–	–	–	–	–
Lucifer yellow	–	significantly higher	similar	1.5	1.5	similar

Source: publication PMC10535880, “Caco-2 Cell Sheet Partially Laminated with HT29-MTX Cells as a Novel In Vitro Model of Gut Epithelium Drug Permeability” (Pharmaceutics, 2023)
